In patent US7064124B2, “NF-κB inhibitor containing substituted benzoic acid derivative as active ingredient” (Daiichi Suntory Pharma Co., Ltd., priority 2001, dated 2006):
Converted amounts (≈) assume the structure as drawn.

Experiments:
[1] = test system: NF-κB; assay: NF-κB luciferase reporter assay in A549/NF-κBLuc cells stimulated with IL-1β; format: cell-based, human; details: Homo sapiens, A549, A549/NF-κBLuc cells; compound added 1 hour before IL-1β, then 3 hours incubation; luciferase activity; read-out: NF-κB Inhibitory Activity (IC50)
Method: Effect on Human Lung Cancer-Derived Cell A549 (A549/NF-κBluc) Containing Stably Introduced Luciferase Plasmid (pNFκB-Luc, Stratagene. U.S.A.) Regulated by NF-κB Binding Sequence
Using Lipofectamine (Lifetech Oriental, Tokyo), pNFκB-Luc and pSV2neo (Clontech, U.S.A.) were co-transfected into the A549 cell (ATCC CCL185) and G418 sulfate (1 mg/ml, Lifetech Oriental) was added to the culture medium to select cells containing stably introduced pNFκB-Luc A549/NF-κBLuc.
The compound obtained in Examples each was added to A549/NF-κBLuc and one hour after that, IL-1β capable of activating NF-κB was added. The incubation was further continued for 3 hours.
NF-κB Inhibitory Activity (IC50) of Substituted Benzoic Acid Derivitives: […]

SMILES | IC50 [1] | melting point
COC1=C(OC)C(=O)C(Cc2ccc(O)c(C(=O)Nc3ccc(F)cc3)c2)=C(C)C1=O [Example 142, N-[5-(5,6-Dimethoxy-3-methyl-1,4-benzoquinon-2-yl)methyl-2-hydroxybenzoyl]-4-fluoroaniline] | 9 µg/mL (≈ 21.2 µM) | 125 to 127 °C
CCOC(=O)c1ccc(NC(=O)c2cc(CC3=C(C)C(=O)C(OC)=C(OC)C3=O)ccc2OC(C)=O)cc1 [Example 147, Ethyl N-[5-(5,6-dimethoxy-3-methyl-1,4-benzoquinon-2-yl)methyl-2-acetoxybenzoyl]-4-aminobenzoate] | 19 µg/mL (≈ 36.4 µM) | 154 to 156.5 °C
COC1=C(OC)C(=O)C(Cc2ccc(OC(C)=O)c(C(=O)Nc3ccc(CC#N)cc3)c2)=C(C)C1=O [Example 149, N-[5-(5,6-Dimethoxy-3-methyl-1,4-benzoquinon-2-yl)methyl-2-acetoxybenzoyl]-4-cyanomethylaniline] | 25 µg/mL (≈ 51.2 µM) | 125 to 128 °C
COC1=C(OC)C(=O)C(Cc2ccc(OC(C)=O)c(C(=O)Nc3ccc(S(=O)(=O)C(F)(F)F)cc3)c2)=C(C)C1=O [Example 173, N-[5-(5,6-Dimethoxy-3-methyl-1,4-benzoquinon-2-yl)methyl-2-acetoxybenzoyl]-4-(trifluoromethylsulfonyl)aniline] | 9 µg/mL (≈ 15.5 µM) | 84.5 to 87 °C
COC1=C(OC)C(=O)C(Cc2ccc(OC(C)=O)c(C(=O)Nc3ccc(Cl)nc3)c2)=C(C)C1=O [Example 184, N-(6-Chloropyridin-3-yl)-5-(5,6-dimethoxy-3-methyl-1,4-benzoquinon-2-yl)methyl-2-acetoxybenzamide] | 56 µg/mL (≈ 115 µM) | 74.5 to 77.5 °C
COC1=C(OC)C(=O)C(Cc2ccc(OC(C)=O)c(C(=O)Nc3cccnc3Cl)c2)=C(C)C1=O [Example 186, N-(2-Chloropyridin-3-yl)-5-(5,6-dimethoxy-3-methyl-1,4-benzoquinon-2-yl)methyl-2-acetoxybenzamide] | 2 µg/mL (≈ 4.12 µM) | 128.5 to 130 °C
COC1=C(OC)C(=O)C(Cc2ccc(OC(C)=O)c(C(=O)Nc3ccc(C(=O)OC(C)(C)C)cc3)c2)=C(C)C1=O [Example 188, tert-Butyl N-[5-(5,6-dimethoxy-3-methyl-1,4-benzoquinon-2-yl)methyl-2-acetoxybenzoyl]-4-aminobenzoate] | 9 µg/mL (≈ 16.4 µM) | 78.5 to 81 °C
COC1=C(OC)C(=O)C(Cc2ccc(OC(C)=O)c(C(=O)Nc3ccc(NC(=O)OC(C)(C)C)cc3)c2)=C(C)C1=O [Example 199, N-[5-(5,6-Dimethoxy-3-methyl-1,4-benzoquinon-2-yl)methyl-2-acetoxybenzoyl]-4-(tert-butoxycarbonyl)aminoaniline] | 16 µg/mL (≈ 28.3 µM) | 188.5 to 191 °C
COC1=C(OC)C(=O)C(Cc2ccc(O)c(C(=O)Nc3ccc(NC(=O)OC(C)(C)C)cc3)c2)=C(C)C1=O [Example 200, N-[5-(5,6-Dimethoxy-3-methyl-1,4-benzoquinon-2-yl)methyl-2-hydroxybenzoyl]-4-(tert-butoxycarbonyl)aminoaniline] | 17 µg/mL (≈ 32.5 µM) | 127 to 129 °C
COC1=C(OC)C(=O)C(Cc2ccc(OC(C)=O)c(C(=O)Nc3ccc(-n4ccnc4)cc3)c2)=C(C)C1=O [Example 208, N-[5-(5,6-Dimethoxy-3-methyl-1,4-benzoquinon-2-yl)methyl-2-acetoxybenzoyl]-4-(imidazol-1-yl)aniline] | 19 µg/mL (≈ 36.9 µM) | 116.5 to 118.5 °C
CC(=O)Oc1ccc(CC2=C(C)C(=O)C(C)=C(C)C2=O)cc1C(=O)O [Example 233, 5-(3,5,6-Trimethyl-1,4-benzoquinon-2-yl)methyl-2-acetoxybenzoic acid] |  | 157 to 159.5 °C
CC(=O)Oc1ccc(CC2=C(C)C(=O)C(C)=C(C)C2=O)cc1C(=O)Nc1ccc(C(F)(F)F)cc1 [Example 234, N-[5-(3,5,6-Trimethyl-1,4-benzoquinon-2-yl)methyl-2-acetoxybenzoyl]-4-trifluoromethylaniline] |  | 180 to 181 °C
CC(=O)Oc1ccc(CC2=C(C)C(=O)C(C)=C(C)C2=O)cc1C(=O)Nc1cccnc1Cl [Example 236, N-(2-Chloropyridin-3-yl)-5-(3,5,6-trimethyl-1,4-benzoquinon-2-yl)methyl-2-acetoxybenzamide] |  | 130 to 131 °C

Results, then the compound that gave them:

IC50 [1] | melting point | SMILES
11 µg/mL (≈ 23.1 µM) | 111 to 114 °C | COC1=C(OC)C(=O)C(Cc2ccc(O)c(C(=O)Nc3ccccc3C(F)(F)F)c2)=C(C)C1=O [Example 146, N-[5-(5,6-Dimethoxy-3-methyl-1,4-benzoquinon-2-yl)methyl-2-hydroxybenzoyl]-2-trifluoromethylaniline]
3 µg/mL (≈ 6.26 µM) | 176 to 179 °C | CCOC(=O)c1ccc(NC(=O)c2cc(CC3=C(C)C(=O)C(OC)=C(OC)C3=O)ccc2O)cc1 [Example 148]
4 µg/mL (≈ 8.96 µM) | 164.5 to 166 °C | COC1=C(OC)C(=O)C(Cc2ccc(O)c(C(=O)Nc3ccc(CC#N)cc3)c2)=C(C)C1=O [Example 150, N-[5-(5,6-Dimethoxy-3-methyl-1,4-benzoquinon-2-yl)methyl-2-hydroxybenzoyl]-4-cyanomethylaniline]
7 µg/mL (≈ 17.1 µM) | 119 to 122.5 °C | COC1=C(OC)C(=O)C(Cc2ccc(O)c(C(=O)Nc3cccnc3)c2)=C(C)C1=O [Example 158, N-(Pyridin-3-yl)-5-(5,6-dimethoxy-3-methyl-1,4-benzoquinon-2-yl)methyl-2-hydroxybenzamide]
26 µg/mL (≈ 51.5 µM) | 115 to 118 °C | COC1=C(OC)C(=O)C(Cc2ccc(OCc3cccnc3)c(C(=O)NC3CCCCC3)c2)=C(C)C1=O [Example 171, N-Cyclohexyl-5-(5,6-dimethoxy-3-methyl-1,4-benzoquinon-2-yl)methyl-2-(3-pyridylmethyloxy)benzamide]
6 µg/mL (≈ 11.1 µM) | 223 to 225.5 °C | COC1=C(OC)C(=O)C(Cc2ccc(O)c(C(=O)Nc3ccc(S(=O)(=O)C(F)(F)F)cc3)c2)=C(C)C1=O [Example 174, N-[5-(5,6-Dimethoxy-3-methyl-1,4-benzoquinon-2-yl)methyl-2-hydroxybenzoyl]-4-(trifluoromethylsulfonyl)aniline]
23 µg/mL (≈ 47.9 µM) | 104.5 to 107.5 °C | COC1=C(OC)C(=O)C(Cc2ccc(OC(C)=O)c(C(=O)Nc3ccc(OC)nc3)c2)=C(C)C1=O [Example 180]
11 µg/mL (≈ 25.1 µM) | 169 to 170 °C | COC1=C(OC)C(=O)C(Cc2ccc(O)c(C(=O)Nc3ccc(OC)nc3)c2)=C(C)C1=O [Example 181, N-(6-Methoxypyridin-3-yl)-5-(5,6-dimethoxy-3-methyl-1,4-benzoquinon-2-yl)methyl-2-hydroxybenzamide]
11 µg/mL (≈ 24.8 µM) | 166 to 169 °C | COC1=C(OC)C(=O)C(Cc2ccc(O)c(C(=O)Nc3ccc(Cl)nc3)c2)=C(C)C1=O [Example 185, N-(6-Chloropyridin-3-yl)-5-(5,6-dimethoxy-3-methyl-1,4-benzoquinon-2-yl)methyl-2-hydroxybenzamide]
2 µg/mL (≈ 4.52 µM) | 152 to 154 °C | COC1=C(OC)C(=O)C(Cc2ccc(O)c(C(=O)Nc3cccnc3Cl)c2)=C(C)C1=O [Example 187, N-(2-Chloropyridin-3-yl)-5-(5,6-dimethoxy-3-methyl-1,4-benzoquinon-2-yl)methyl-2-hydroxybenzamide]
4 µg/mL (≈ 8.84 µM) | 213.5 to 215.5 °C | COC1=C(OC)C(=O)C(Cc2ccc(O)c(C(=O)Nc3ccc([N+](=O)[O-])cc3)c2)=C(C)C1=O [Example 191, N-[5-(5,6-Dimethoxy-3-methyl-1,4-benzoquinon-2-yl)methyl-2-hydroxybenzoyl]-4-nitroaniline]
20 µg/mL | 149.5 to 152 °C | COC1=C(OC)C(=O)C(Cc2ccc(O)c(C(=O)Nc3cccnc3)c2)=C(C)C1=O.CS(=O)(=O)O [Example 202, N-(Pyridin-3-yl)-5-(5,6-dimethoxy-3-methyl-1,4-benzoquinon-2-yl)methyl-2-hydroxybenzamide (methanesulfonate)]
30 µg/mL | 199.5 to 201.5 °C | COC1=C(OC)C(=O)C(Cc2ccc(O)c(C(=O)Nc3ccncc3)c2)=C(C)C1=O.CS(=O)(=O)O [Example 203, N-(Pyridin-4-yl)-5-(5,6-dimethoxy-3-methyl-1,4-benzoquinon-2-yl)methyl-2-hydroxybenzamide (methanesulfonate)]
50 µg/mL | 162 to 164 °C | COC1=C(OC)C(=O)C(Cc2ccc(O)c(C(=O)Nc3ccc(N)cc3)c2)=C(C)C1=O.Cl [Example 205, N-[5-(5,6-Dimethoxy-3-methyl-1,4-benzoquinon-2-yl)methyl-2-hydroxybenzoyl]-p-phenylenediamine (hydrochloride)]
98 µg/mL (≈ 240 µM) | 169 to 171 °C | COC1=C(OC)C(=O)C(Cc2cccc(C(=O)Nc3cccnc3)c2O)=C(C)C1=O [Example 207, N-(Pyridin-3-yl)-3-(5,6-dimethoxy-3-methyl-1,4-benzoquinon-2-yl)methyl-2-hydroxybenzamide]
 | 218 to 220.5 °C | COC1=C(OC)C(=O)C(Cc2ccc(O)c(C(=O)Nc3ccnc(OC)c3)c2)=C(C)C1=O [Example 231, N-(2-Methoxypyridin-4-yl)-5-(5,6-dimethoxy-3-methyl-1,4-benzoquinon-2-yl)methyl-2-hydroxybenzamide]
 | 245 to 247 °C | CC1=C(C)C(=O)C(Cc2ccc(O)c(C(=O)Nc3ccncc3)c2)=C(C)C1=O [Example 238, N-(Pyridin-4-yl)-5-(3,5,6-trimethyl-1,4-benzoquinon-2-yl)methyl-2-hydroxybenzamide]
